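The compound was tested at five concentrations on cells cultured in 96-well plates, with a 48-hour exposure period. GI50 is the concentration that inhibits growth by half.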 The source made the active and inactive calls. No stated cut-off is given here; in the data, active = GI50 up to about 1.1 µM and inactive = higher.
Columns and labels:
Assay in all cases: DTP human tumour cell line panel, 48 h
MDA-MB-435 = system: MDA-MB-435
SK-MEL-28 = system: SK-MEL-28
Malme-3M = system: Malme-3M
SF-268 = system: SF-268
SNB-19 = system: SNB-19
RXF 393 = system: RXF 393
MOLT-4 = system: MOLT-4
TK-10 = system: TK-10
KM12 = system: KM12
MDA-N = system: MDA-N
NCI-H23 = system: NCI-H23
NCI/ADR-RES = system: NCI/ADR-RES
UACC-62 = system: UACC-62
786-0 = system: 786-0
OVCAR-3 = system: OVCAR-3
IGROV-1 = system: IGROV-1
T47D = system: T47D
COLO 205 = system: COLO 205
HOP-92 = system: HOP-92
UO-31 = system: UO-31
LOX IMVI = system: LOX IMVI
OVCAR-5 = system: OVCAR-5
U-251 = system: U-251
NCI-H522 = system: NCI-H522
MCF7 = system: MCF7
SF-295 = system: SF-295
OVCAR-4 = system: OVCAR-4
SK-MEL-2 = system: SK-MEL-2
M14 = system: M14
CAKI-1 = system: CAKI-1
HOP-62 = system: HOP-62
A549 = system: A549
SNB-75 = system: SNB-75
PC-3 = system: PC-3
EKVX = system: EKVX
HCT-15 = system: HCT-15
K562 = system: K562
NCI-H460 = system: NCI-H460
DU-145 = system: DU-145
HT-29 = system: HT-29
UACC-257 = system: UACC-257
RPMI-8226 = system: RPMI-8226
HCT-116 = system: HCT-116
SW-620 = system: SW-620
SK-OV-3 = system: SK-OV-3
OVCAR-8 = system: OVCAR-8
ACHN = system: ACHN
MDA-MB-231 = system: MDA-MB-231
BT-549 = system: BT-549
SK-MEL-5 = system: SK-MEL-5
HCC 2998 = system: HCC 2998
SN12C = system: SN12C
CCRF-CEM = system: CCRF-CEM
Hs-578T = system: Hs-578T

In the case of `Cc1cc(S(=O)(=O)Nc2nc3cc(-c4ccc(Cl)cc4)sc3c(=O)n2N)c(S)cc1Cl`, the GI50 (MDA-MB-435) is reported as 62.2 µM (inactive), the GI50 (SK-MEL-28) is reported as 36.5 µM (inactive) and the GI50 (Malme-3M) is reported as > 100 µM (inactive). The GI50 (SF-268) was 86.3 µM (inactive), the GI50 (SNB-19) was 80.2 µM (inactive) and the GI50 (RXF 393) was 37.2 µM (inactive). For the same compound, the GI50 (MOLT-4) was 21.3 µM (inactive), the GI50 (TK-10) was 73.6 µM (inactive) and the GI50 (KM12) was 34.2 µM (inactive). The GI50 (MDA-N) was 53.8 µM (inactive), the GI50 (NCI-H23) was 59.8 µM (inactive) and the GI50 (NCI/ADR-RES) was 52.4 µM (inactive). For the same compound, the GI50 (UACC-62) was 31.7 µM (inactive), the GI50 (786-0) was 45.9 µM (inactive) and the GI50 (OVCAR-3) was > 100 µM (inactive). The GI50 (IGROV-1) was 59.6 µM (inactive), the GI50 (T47D) was 31.3 µM (inactive) and the GI50 (COLO 205) was 17 µM (inactive). For the same compound, the GI50 (HOP-92) was 72.9 µM (inactive), the GI50 (UO-31) was 44.4 µM (inactive) and the GI50 (LOX IMVI) was 45.4 µM (inactive). The GI50 (OVCAR-5) was 44.2 µM (inactive), the GI50 (U-251) was 43.4 µM (inactive) and the GI50 (NCI-H522) was 62.4 µM (inactive). For the same compound, the GI50 (MCF7) was 44.7 µM (inactive), the GI50 (SF-295) was 33.3 µM (inactive) and the GI50 (OVCAR-4) was 64.4 µM (inactive). The GI50 (SK-MEL-2) was 75.2 µM (inactive), the GI50 (M14) was > 100 µM (inactive) and the GI50 (CAKI-1) was > 100 µM (inactive). For the same compound, the GI50 (HOP-62) was 36.3 µM (inactive), the GI50 (A549) was > 100 µM (inactive) and the GI50 (SNB-75) was > 100 µM (inactive). For the same compound, the GI50 (PC-3) was 63.2 µM (inactive), the GI50 (EKVX) was 82.8 µM (inactive) and the GI50 (HCT-15) was 45.6 µM. The GI50 (K562) was 32.7 µM (inactive), the GI50 (NCI-H460) was 36.6 µM (inactive) and the GI50 (DU-145) was 37.2 µM (inactive). For the same compound, the GI50 (HT-29) was 54.5 µM (inactive), the GI50 (UACC-257) was 65 µM (inactive) and the GI50 (RPMI-8226) was > 100 µM (inactive). The GI50 (HCT-116) was 40.3 µM (inactive), the GI50 (SW-620) was 39.4 µM (inactive) and the GI50 (SK-OV-3) was 63.2 µM (inactive). The GI50 (OVCAR-8) was 50.2 µM (inactive), the GI50 (ACHN) was 26.5 µM (inactive) and the GI50 (MDA-MB-231) was 56.6 µM (inactive). For the same compound, the GI50 (BT-549) was > 100 µM (inactive), the GI50 (SK-MEL-5) was 51.1 µM (inactive) and the GI50 (HCC 2998) was 94.4 µM (inactive). For the same compound, the GI50 (SN12C) was 50.6 µM (inactive), the GI50 (CCRF-CEM) was 27.2 µM (inactive) and the GI50 (Hs-578T) was > 100 µM (inactive).
